From patent publication US9018208B2, “Heterocycles as potassium channel modulators” (Icagen Inc., priority 2007, dated 2015) come the findings set out here.

As usually defined, the EC50 is the midpoint of the concentration-response curve.

For the first experiment, the system named is SH-SY5Y M-currents (KCNQ2, KCNQ3 and KCNQ5). Briefly: SH-SY5Y native cell line FLIPR assay (voltage-sensitive dye DiBAC). It counts as cell-based, mouse neuroblastoma, rat glioma hybrid cell line. To be noted: FLIPR assay, SH-SY5Y native cell line; Table 1; read-out: SH-SY5Y EC50. An excerpt:
SH-SY5Y cells, a mouse neuroblastoma, rat glioma hybrid cell line, functionally express M-currents (Robbins et al., J. Physiol. 451: 159-85 (1992). SH-SY5Y M-currents are likely comprised, at least in part, of KCNQ2, KCNQ3 and KCNQ5, since these genes are reportedly robustly expressed in differentiated SH-SY5Y cells (Selyanko et al., J. Neurosci. 19(18): 7742-56 (1999); Schroeder et al., J. Biol. Chem. 275(31): 24089-95 (2000)) and KCNQ3 dominant-negative constructs reduce M-current density in these cells (Selyanko et al., J. Neurosci. 22(5): RC212 (2002).
SH-SY5Y were maintained in DMEM (high glucose) supplemented with 10% fetal bovine serum, 0.05 mM pyridoxine, 0.1 mM hypoxanthine, 400 nM aminopterin, […], 50 μgml^−1 gentamycin and 10 mM HEPES, in an incubator at 37° C. with a humidified atmosphere of 5% CO2. Cells were plated in 96 well plates differentiated by addition of 10 μM PGE1 and 50 μM isomethylbutylxanthine to the growth media prior to study.
Differentiated SH-SY5Y cells were loaded with voltage-sensitive dye by incubation in Earls Balanced Salt Solution (EBSS) containing […] DiBAC for 1 h. Following loading, drug solution containing […] DiBAC was added to each well. Changes in fluorescence were measured every 30 s for 25 min. The maximum change in fluorescence was measured and expressed as a percentage of the maximum response obtained in the presence of a positive control agent.
`O=C(Cc1ccc(F)cc1)Nc1nc2ccc(C(F)(F)F)cn2c1-c1nccs1` [Compound 84, 2-(4-fluorophenyl)-N-(3-(thiazol-2-yl)-6-(trifluoromethyl)imidazo[1,2-a]pyridin-2-yl)acetamide]: the EC50 is less than 500 nM.

The same experiment, now with this note: FLIPR assay, SH-SY5Y native cell line; Table 2; read-out: SH-SY5Y EC50.
For the molecule `CC(C)(C#N)CC(=O)Nc1nc2ccc(F)cn2c1-c1ccc(OC(F)(F)F)cc1` [Compound 218, 3-cyano-N-(6-fluoro-3-(4-(trifluoromethoxy)phenyl)imidazo[1,2-a]pyridin-2-yl)-3-methylbutanamide], the EC50 was 500 to 3000 nM.

With `CC(C)C(C)C(=O)Nc1nc2ccc(F)cn2c1-c1cccc(Cl)c1` (stereo not drawn) [Compound 314, N-(3-(3-chlorophenyl)-6-fluoroimidazo[1,2-a]pyridin-2-yl)-2,3-dimethylbutanamide], the EC50 was less than 500 nM. Same read-out and setting: the result for `CC(CC(=O)Nc1nc2ccc(F)cn2c1-c1ccc(F)c(F)c1)C(F)(F)F` (stereo not drawn) [Compound 209, N-(3-(3,4-difluorophenyl)-6-fluoroimidazo[1,2-a]pyridin-2-yl)-4,4,4-trifluoro-3-methylbutanamide] reads less than 500 nM. On the same count and under the same terms, the result for `O=C(CC(F)(F)F)Nc1nc2ccc(F)cn2c1-c1cccc(OC(F)(F)F)c1` [Compound 263, 3,3,3-trifluoro-N-(6-fluoro-3-(3-(trifluoromethoxy)phenyl)imidazo[1,2-a]pyridin-2-yl)propanamide] reads 500 to 3000 nM. On the same count and under the same terms, then `CC(C)C(C)C(=O)Nc1nc2ccc(F)cn2c1-c1cccc(C(F)(F)F)c1` (stereo not drawn) [Compound 288, N-(6-fluoro-3-(3-(trifluoromethyl)phenyl)imidazo[1,2-a]pyridin-2-yl)-2,3-dimethylbutanamide], with 500 to 3000 nM; and `CC(C)(C)CC(=O)Nc1nc2ccccn2c1-c1ccc(F)cc1` [Compound 221, N-(3(4-fluorophenyl)imidazo[1,2-a]pyridin-2-yl)-3,3-dimethylbutanamide], with 500 to 3000 nM. For `Cc1ccc2nc(NC(=O)Cc3ccc(F)cc3)c(-c3cccc(OC(F)(F)F)c3)n2n1` [Compound 306, 2-(4-fluorophenyl)-N-(6-methyl-3-(3-(trifluoromethoxy)phenyl)imidazo[1,2-b]pyridazin-2-yl)acetamide], the EC50 was less than 500 nM.

For `CC(C)(C)CC(=O)Nc1nc2cc(C(F)(F)F)ccn2c1-c1ccc(F)cc1F` [Compound 123, N-(3-(2,4-difluorophenyl)-7-(trifluoromethyl)imidazo[1,2-a]pyridin-2-yl)-3,3-dimethylbutanamide], the EC50 fell in the range of 500 to 3000 nM. Same read-out and setting: the result for `O=C(Cc1ccc(F)cc1)Nc1nc2ccccn2c1-c1cccc(OC(F)(F)F)c1` [Compound 344, 2-(4-fluorophenyl)-N-(3-(3-(trifluoromethoxy)phenyl)imidazo[1,2-a]pyridin-2-yl)acetamide] reads less than 500 nM. Take `O=C(CC1CCCC1)Nc1nc2ccc(F)cn2c1-c1ccc(F)cc1F` [Compound 118, 2-cyclopentyl-N-(3-(2,4-difluorophenyl)-6-fluoroimidazo[1,2-a]pyridin-2-yl)acetamide]: the EC50 lay within 500 to 3000 nM. As for `CC(CC(=O)Nc1nc2ccc(F)cn2c1-c1cccc(OC(F)(F)F)c1)C(F)(F)F` (stereo not drawn) [Compound 276, 4,4,4-trifluoro-N-(6-fluoro-3-(3-(trifluoromethoxy)phenyl)imidazo[1,2-a]pyridin-2-yl)-3-methylbutanamide], the EC50 is less than 500 nM.

The same experiment, now with this note: FLIPR assay, SH-SY5Y native cell line; Table 5; read-out: SH-SY5Y EC50.
On to `C=Cc1c(NC(=O)Cc2ccc(F)cc2)nc2cc(C(F)(F)F)ccn12` [Compound 426, 2-(4-fluorophenyl)-N-(7-(trifluoromethyl)-3-vinylimidazo[1,2-a]pyridin-2-yl)acetamide], for which the EC50 lay in the range of 500 to 3000 nM.

The same experiment, now with this note: SH-SY5Y native cell line, FLIPR assay (Table 3); read-out: SH-SY5Y EC50.
In the case of `CC(CC(=O)Nc1nc2ccc(F)cn2c1-c1ccc(F)cn1)C(F)(F)F` (stereo not drawn) [Compound 369, 4,4,4-trifluoro-N-(6-fluoro-3-(5-fluoropyridin-2-yl)imidazo[1,2-a]pyridin-2-yl)-3-methylbutanamide], the EC50 lay within 3000 to 10000 nM.

The experiment is the same for the next values; noted with them: SH-SY5Y native cell line, FLIPR assay (Table 6); read-out: SH-SY5Y EC50.
Consider `O=C(Nc1nc2ccc(C(F)(F)F)nn2c1C1CCCC1)c1ccc(F)c(F)c1` [Compound 447, N-(3-cyclopentyl-6-(trifluoromethyl)imidazo[1,2-b]pyridazin-2-yl)-3,4,-difluorobenzamide], for which the EC50 is 500 to 3000 nM.
